Results taken from patent US20240270800A1, “ANTIMICROBIAL CaNCR PEPTIDE VARIANTS” (Donald Danforth Plant Science Center, priority 2021, published 2024).
Where a SMILES comes first, the peptide text is derived from it. Bridges are numbered along the chain shown (N, C = ends).

Test system: Botrytis cinerea T-4
Experiment: Determination of minimum inhibitory concentration, 96-well plate spore assay with resazurin viability
Type: cell-based
Conditions: SFM supplemented with 100 mM NaCl
Description: The fungal strains of Botrytis cinerea T-4 were cultured on V8 growth medium. Fungal spores were harvested by flooding the fungal growth plates with sterile water. The spore suspension was filtered through two layers of Miracloth, centrifuged at 13,600 rpm for 1 min, washed, and re-suspended in low-salt Synthetic Fungal Medium (SFM) (U.S. Pat. No. 6,316,407). The spore suspension of each fungal pathogen was adjusted to equivalent spore density using a hemocytometer ([…]).
Anti-fungal activity of NCR13_WT and NCR13_V2 against B. cinerea was assessed using the 2-fold dilution series of each peptide. The antifungal activity was determined spectrophotometrically using the 96-well plate assay (Sagaram et al., 2011). The 45 μL of the peptide dilution ([…]) was added to each well of the microtiter plate containing 45 μL of (˜10^5 spores/ml) the spore suspension. The quantitative fungal growth inhibition was determined by measuring the absorbance at 595 nm using a (Tecan Infinite M200 ProTecan Systems Inc., San Jose, CA) microplate reader after 48 h. The fungal cell viability was determined using the resazurin cell viability assay (Chadha S & Kale SP, 2015; Li et al.; 2019). After incubation of the pathogen/peptide mixture for 48 h, 10 μl of 0.1% resazurin solution was added to each well and re-incubated overnight. […]

Compound: CC[C@H](C)[C@@H]1NC(=O)[C@@H]2CSSC[C@H](NC(=O)[C@@H]3CCCN3C(=O)[C@H](CCCCN)NC(=O)[C@@H](N)[C@@H](C)O)C(=O)N[C@@H](CCC(N)=O)C(=O)N[C@@H](CO)C(=O)N[C@@H](CC(=O)O)C(=O)N[C@@H](CCCCN)C(=O)N[C@@H](CC(=O)O)C(=O)N[C@H]3CSSC[C@H](NC(=O)[C@H](Cc4ccccc4)NC(=O)CNC(=O)[C@H](CC(N)=O)NC1=O)C(=O)N[C@@H](CCCCN)C(=O)N[C@H](C(=O)N[C@H](C(=O)N[C@@H](CCCNC(=N)N)C(=O)O)C(C)C)CSSC[C@H](NC(=O)[C@H](C)NC(=O)[C@H](Cc1ccccc1)NC(=O)[C@H](CCCCN)NC(=O)[C@H](CCCCN)NC3=O)C(=O)N[C@@H](CCCNC(=N)N)C(=O)N[C@@H](CCCCN)C(=O)N1CCC[C@H]1C(=O)N[C@@H](CCCCN)C(=O)N[C@@H](C(C)C)C(=O)N1CCC[C@H]1C(=O)N[C@@H](CCCCN)C(=O)N2 [CaNCR13] (H-TKPCQSDKDCKKFACRKPKVPKCINGFCKCVR-OH; disulfide 4-23, 10-28, 15-30)
- MIC (SFM + 100 mM NaCl): No Activity
